Legend:
PRECE = experiment: Relative quantitative RT-PCR of PRECE mRNA in hearts of STZ-injected mice; type: in vivo, mouse; settings: STZ injection, NLC mice, after 2 weeks
Experimental: Total RNA isolation, first-strand cDNA synthesis, and relative quantitative reverse transcription-polyinerase chain reaction (RT-PCR) using Ambion's Competimer technology were performed as we described (Aizawa et al., “Role of Phosphodiesterase 3 in NO/cGMP-Mediated Anti-inflammatory Effects in Vascular Smooth Muscle Cells,” Circ Res 93(5):406-413 (2003), which is hereby incorporated by reference in its entirety). Ambion's competimer technology allows one to modulate the amplification of 18S rRNA in the same linear range as the RNAs under study when amplified under the same condition. The following primers were used for PCR analysis: […]

p90RSK = p90RSK in vitro kinase assay on heart lysates of STZ-injected mice; type: in vivo, mouse
Experimental: Heart powder was homogenized with 3 vol of lysis buffer and centrifuged at 14,000 g (4° C. for 30 min), and protein concentration were determined. p90RSK was immunoprecipitated through the incubation of 1000 μg protein for each sample with 3 μl of the rabbit polyclonal anti-p90RSK (Santa Cruz, Santa Cruz, Calif.) antibody for 3 hrs, the addition of 40 μl of a 1:1 slurry of protein A/Sepharose beads to the extract/antibody mixture, and then incubation for 1 hour at 4° C. This complex was washed, twice each, in cell lysis buffer described above, LiCl buffer (500 mM LiCl 100 mM Tris-HCl (pH 7.6), 0.1% Triton X-100, 1 mM DTT) and wash buffer (20 mM HEPES, pH 7.2, 2 mM EGTA, 100 μM Na3VO4, 10 mM MgCl2, 1 mM DTT, 0.1% Triton X-100). After the final wash and pelleting, S6 kinase substrate peptide was used to determine p90RSK kinase activity, as previously described (Cavet et al., “14-3-3beta is a p90 Ribosomal S6 Kinase (RSK) Isoform 1-Binding Protein That Negatively Regulates RSK Kinase Activity,” J Biol Chem 278(20):18376-18383 (2003), which is hereby incorporated by reference in its entirety). The in vitro kinase assay was performed according to manufacture's protocol using a long S6 kinase substrate peptide (Upstate) to determine radiolabeled phosphate incorporation by scintillation counter. […]

[1] = Fasting blood glucose in STZ-induced diabetic mice; type: in vivo, mouse; settings: 2 weeks after STZ injection (vehicle 107±8 mg/dl)
Description: After a 6 hrs fast, basal blood samples were colleted from the tip of the tail. All blood samples were immediately measured for glucose using Prestige IQ, Blood Glucose Monitoring System (Home Diagnosis, Inc, Ft. Lauderdale, Fla.).
Previously, it was reported that PKCP activation is critical in H2O2-mediated p90RSK activation. […] Since the critical role of PKCP activation in diabetes has been extensively studied, it was investigated whether p90RSK is activated in Streptozotocin (STZ)-induced hyperglycemic mice. The current study used STZ-induced diabetic mice, a known useful model for the study of diabetes (Aizawa-Abe et al., “Pathophysiological Role of Leptin in Obesity-related Hypertension,” J Clin Invest 105(9):1243-1252 (2000), which is hereby incorporated by reference in its entirety).

H9c2 cells = experiment: Anoxia/reoxygenation (A/R)-induced apoptosis in transfected H9c2 cells (TUNEL); type: cell-based, rat
Description: Ad.LacZ (LACZ gene in an adenoviral vector) and Ad.DN-RSK were transduced into neonatal rat cardiomyocytes at varying MOI, as shown in FIG. 1. There was a concentration-dependent expression of DN-RSK (Fire 1) with expression greater than endogenous RSK at 100 MOI. WT-RSK, WT-NHE1, and NHE S703A cDNAs were inserted into pLL3.7-IRES-EGFP to make a pLL3.7-WT-RSK-IRES-EGFP expression vector. These vectors were transfected into H9c2 rat embryonic myoblasts using lipofectamine 2000 (Invitrogen, Carlsbad, Calif.). Cells were cultured for 24 hr to allow sufficient protein expression, then cells were exposed to anoxia. Cells were placed for 12 hr in the anoxia chamber (5% CO2 and 95% N2) and after 24 hr, reoxygenation was performed by changing the medium and placing cells in an air incubator (5% CO2 and 95% air). After 24 hr cell death was detected by TUNEL and by cell death detection ELISA kit (Roche Applied Sciences, Indianapolis, Ind.). Only transfected cells identified by EGFP expression were counted to compare the effects of vector alone (pLL3.7-IRES-EGFP) vs. WT-RSK, WT-NHE1 and MHE1-S703A (pLL3.7-WT-RSK-IRES-EGFP, pLL3.7-WT-NHE1-IRES-EGFP and pLL3.7-NHE1-S703A-IRES-EGFP).

NHE1 [2] = molecular target: T1, NHE1 (Rattus norvegicus, UniProt P26431); experiment: NHE1 activity (rate of pHi recovery after acid load, BCECF-AM) in neonatal rat cardiomyocytes; type: cell-based; settings: 100 μM H2O2
T1 construct: Primary cultures of cardiac myocytes were prepared from ventricles of 1 to 3-day-old neonatal Wistar rats; endogenous in cells; host or cells: primary neonatal Wistar rat ventricular cardiomyocytes, transduced with Ad.LacZ or Ad.DN-RSK; NHE1 itself not transfected
T1 sequence (P26431 whole entry): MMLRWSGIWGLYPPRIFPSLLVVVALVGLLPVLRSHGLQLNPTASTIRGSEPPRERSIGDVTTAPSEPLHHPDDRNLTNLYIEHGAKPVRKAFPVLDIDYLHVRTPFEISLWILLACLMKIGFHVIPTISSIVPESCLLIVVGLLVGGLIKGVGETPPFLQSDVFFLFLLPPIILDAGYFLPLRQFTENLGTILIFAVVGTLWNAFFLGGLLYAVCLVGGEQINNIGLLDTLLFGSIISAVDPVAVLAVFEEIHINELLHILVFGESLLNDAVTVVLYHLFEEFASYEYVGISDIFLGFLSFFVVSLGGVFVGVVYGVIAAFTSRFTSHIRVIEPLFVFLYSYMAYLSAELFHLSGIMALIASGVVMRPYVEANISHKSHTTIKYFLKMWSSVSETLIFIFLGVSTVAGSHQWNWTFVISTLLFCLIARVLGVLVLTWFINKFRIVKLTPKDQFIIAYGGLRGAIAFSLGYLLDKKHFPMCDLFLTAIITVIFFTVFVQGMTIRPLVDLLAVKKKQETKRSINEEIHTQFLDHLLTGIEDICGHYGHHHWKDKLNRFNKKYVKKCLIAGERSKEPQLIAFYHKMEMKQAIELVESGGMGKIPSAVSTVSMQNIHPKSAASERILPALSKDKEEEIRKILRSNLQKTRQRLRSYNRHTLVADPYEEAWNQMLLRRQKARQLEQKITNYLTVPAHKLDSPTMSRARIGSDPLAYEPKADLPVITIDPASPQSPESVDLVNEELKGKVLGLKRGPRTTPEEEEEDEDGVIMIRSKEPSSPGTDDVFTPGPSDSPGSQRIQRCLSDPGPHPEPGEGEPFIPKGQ
Experimental: Primary cultures of cardiac myocytes were prepared from ventricles of 1 to 3-day-old neonatal Wistar rats (Akimoto et al., “Heparin and Heparin Sulfate Block Angiotensin II-Induced Hypertrophy in Cultured Neonatal Rat Cardiomyocytes. A possible Role of Intrinsic Heparin-Like Molecules in Regulation of Cardiomyocyte Hypertrophy,” Circulation 93:810-816 (1996), which is hereby incorporated by reference in its entirety). Briefly, cells were dissociated by collagenase II (Worthington Biochem, NJ) from the ventricles and plated at a density of 1×10^5 cells/cm^2 on 25 mm collagen-coated coverslips in Dulbecco's modified Eagle's medium (DMEM) with 10% fetal bovine serum and 10% horse serum. After 6 hrs of plating the isolated cardiomyocytes, 10 μM cytosine arabinoside (Ara C) was added and the cells were cultured 24 hrs, after which the culture medium was changed to DMEM with 10 μM Ara C in 10% fetal bovine serum.
Isolated neonatal cardiomyocytes were cultured on 25 mm glass coverslips. The intracellular pH indicator BCECF-AM was incubated with DMEM without FBS for 30 min at 37° C. (Ozkan et al., “A Rapid Method for Measuring Intracellular pH Using BCECF-AM,” Biochem Biophys Acta 1572: 143-148 (2002), which is hereby incorporated by reference in its entirety). […] BCECF-AM was excited at 490 and 440 nm, and the emission fluorescence recorded at 500 nm. […]

[3] = test system: isolated heart from WT-p90RSK-Tg mice and non-transgenic littermate control (NLC) mice; experiment: Cardiac damage: CK and LDH release from the isolated heart after ischemia/reperfusion; set-up: species or system mouse; settings: captopril 50 μM pretreatment
Experimental: Creatine kinase (CK) and lactate dehydrogenase (LDH) were measured by the University of Rochester, Department of Clinical Chemistry, and reported in clinical indices (units/L) as means ±S.D.
For isolated heart from WT-p90RSK-Tg mice and non-transgenic littermate control (NLC) mice were studied using Langendorff preparation. Animals were anaesthetized with ketamine (50 mg/kg) and xylazine (2.5 mg/kg), i.p., and heparinized (5000 U/kg), i.p., to protect the heart against microthrombi. The chest was opened at the sternum and the heart, after cannulation with a 23 G phalanged stainless steel cannula, quickly removed. The heart was retrogradely perfused through the aorta in a non-circulating Langendorff apparatus with KH buffer (118 mM NaCl, 4.7 mM KCl, 1.2 mM MgSO4, 1.2 mM KH2PO4, 2.5 mM CaCl2, 25 mM NaHCO3, 0.5 mM Na-EDTA and 11 mM glucose) at a constant pressure of 80 mmHg. The buffer was saturated with 95% O2/5% CO2 (v/v, pH 7.4, 37° C.) for 50 min. A homemade water-filled balloon was inserted into the left ventricle through the left atrium and was adjusted to a left ventricular end-diastolic pressure of 5 mmHg during initial equilibration. The distal end of the catheter was connected to an ETH-200 Bridge Amplifier (CB Sciences, Inc) and PowerLab/200 (AD Instruments) data acquisition system via a pressure transducer (DELTRAN II, Utah Medical Products, Inc., Midvale, Utah). […]

NHE1 [4] = molecular target: NHE1 (Homo sapiens, UniProt P19634); settings: cited from earlier work; for mortality in patients experiencing myocardial infarction: clinical trials GUARDIAN and ESCAMI
NHE1 (Homo sapiens, UniProt P19634), sequence (P19634 whole entry): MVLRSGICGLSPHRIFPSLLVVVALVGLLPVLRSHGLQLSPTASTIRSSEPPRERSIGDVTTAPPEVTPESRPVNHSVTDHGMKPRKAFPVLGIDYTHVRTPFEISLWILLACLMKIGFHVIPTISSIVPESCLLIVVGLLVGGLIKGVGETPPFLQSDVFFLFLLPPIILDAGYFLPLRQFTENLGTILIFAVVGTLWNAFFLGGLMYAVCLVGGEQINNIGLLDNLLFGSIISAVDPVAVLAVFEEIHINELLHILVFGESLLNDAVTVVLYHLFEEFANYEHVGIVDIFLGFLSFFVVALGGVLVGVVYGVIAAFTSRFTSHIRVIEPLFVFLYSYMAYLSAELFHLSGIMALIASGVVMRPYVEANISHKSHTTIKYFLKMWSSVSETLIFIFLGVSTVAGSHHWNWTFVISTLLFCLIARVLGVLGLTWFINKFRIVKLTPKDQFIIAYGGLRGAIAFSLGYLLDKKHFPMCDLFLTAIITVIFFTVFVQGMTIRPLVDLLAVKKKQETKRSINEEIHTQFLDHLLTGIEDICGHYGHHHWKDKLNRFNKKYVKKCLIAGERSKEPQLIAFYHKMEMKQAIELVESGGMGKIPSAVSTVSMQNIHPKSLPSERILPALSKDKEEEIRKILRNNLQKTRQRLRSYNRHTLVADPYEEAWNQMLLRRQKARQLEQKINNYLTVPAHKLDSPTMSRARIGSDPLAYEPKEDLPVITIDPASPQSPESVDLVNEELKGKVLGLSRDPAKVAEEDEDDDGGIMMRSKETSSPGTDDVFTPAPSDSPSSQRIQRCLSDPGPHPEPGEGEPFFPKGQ

## CN(N=O)C(=O)N[C@H]1C(O)O[C@H](CO)[C@@H](O)[C@@H]1O (mixture of isomers) [STZ, Streptozotocin]
PRECE
  PRECE mRNA expression in heart: increased
p90RSK; DN-p90RSK-Tg mice + STZ
  p90RSK activation (in vitro kinase assay): 8009±797 cpm
p90RSK; NLC mice + STZ
  p90RSK activation (in vitro kinase assay): 12991±1810 cpm
[1]
  fasting blood glucose level: 224 ± 5 mg/dL

## CCN(c1nc(N)c(C(=O)NC(=N)N)nc1Cl)C(C)C [EIPA]
H9c2 cells; A/R + NHE-WT transfected H9c2 cells + EIPA
  apoptosis: 39±4%
H9c2 cells; EIPA 5 μM + A/R (12 hr/24 hr) + WT-RSK transfected H9c2 cells
  apoptosis: 29.9±5.2%

## OO [H2O2]
NHE1 [2]; LacZ expressing cardiomyocytes
  increase of NHE1 activity: 3 fold
NHE1 [2]; LacZ expressing cardiomyocytes (basal 0.16±0.02)
  NHE1 activity: 0.49±0.13 pHi/min

## C[C@H](CS)C(=O)N1CCC[C@H]1C(=O)O [captopril]
[3]; NLC hearts, 40 min global ischemia and 25 min reperfusion
  release of CK and LDH: no beneficial effect
[3]; WT-p90RSK-Tg hearts, 20 min ischemia and 25 min reperfusion
  release of cardiac enzymes (CK and LDH): significantly reduced

## CC(C)c1ccc(C(=O)NC(=N)N)cc1S(C)(=O)=O [cariporide]
NHE1 [4]
  mortality in patients experiencing myocardial infarction: no significant reduction in mortality
NHE1 [4]; subgroup of patients who underwent coronary artery bypass grafting
  improvement in LV function: 25%

## Cc1cc(-n2cccc2)c(S(C)(=O)=O)cc1C(=O)NC(=N)N [eniporide]
NHE1 [4]
  mortality in patients experiencing myocardial infarction: no significant reduction in mortality

Reference: patent US20080104718A1, “Transgenic Non-Human Animal Models of Ischemia-Reperfusion Injury and Uses Thereof” (UNIVERSITY OF ROCHESTER, priority 2004, published 2008)
